Measured values as given in patent publication US12545672B2, “Antibiotic compounds, methods of manufacturing the same, pharmaceutical compositions containing the same and uses thereof” (Debiopharm International S.A., priority 2018, dated 2026).

Columns and labels:
Neisseria gonorrhoeae = test: MIC50 by CLSI agar dilution on a panel of N. gonorrhoeae clinical isolates; type: cell-based; settings: Neisseria gonorrhoeae; agar dilution, GC agar base, minimum of 15 clinical isolates; read-out: MIC50
Experimental: MIC50: MICs were determined in accordance with the appropriate Clinical and Laboratory Standards Institute (CLSI) methodology by the agar dilution susceptbility testing method in GC agar base.

[1] = target: Neisseria gonorrhoeae FabI (Neisseria gonorrhoeae, UniProt A0ACH0F547); test: Neisseria gonorrhoeae FabI inhibition assay (NADH consumption)
Sequence of Neisseria gonorrhoeae FabI (A0ACH0F547 1-261): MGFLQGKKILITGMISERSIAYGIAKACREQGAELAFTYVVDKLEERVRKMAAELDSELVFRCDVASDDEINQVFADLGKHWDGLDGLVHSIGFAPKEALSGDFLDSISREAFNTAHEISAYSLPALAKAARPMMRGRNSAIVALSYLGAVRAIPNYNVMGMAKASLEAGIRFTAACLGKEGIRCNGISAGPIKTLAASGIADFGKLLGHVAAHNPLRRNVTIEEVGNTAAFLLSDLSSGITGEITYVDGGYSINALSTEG

| MIC50 (Neisseria gonorrhoeae) | IC50 [1] | SMILES |
| --- | --- | --- |
| < 1 µg/mL | < 10 nM | Cc1oc2ccccc2c1CN(C)C(=O)/C=C/c1cnc2c(c1)NC[C@@](C)(CO)C(=O)N2 (single isomer, unassigned) [Compound 40] |
| < 1 µg/mL | < 10 nM | Cc1oc2c(Oc3ccc4c(c3)CCN4)cccc2c1CN(C)C(=O)/C=C/c1cnc2c(c1)CCCC(=O)N2 [Compound 180, (E)-N-((7-(indolin-5-yloxy)-2-methylbenzofuran-3-yl)methyl)-N-methyl-3-(8-oxo-6,7,8,9-tetrahydro-5H-pyrido[2,3-b]azepin-3-yl)acrylamide] |
| < 1 µg/mL | < 10 nM | Cc1oc2ccccc2c1CN(C)C(=O)/C=C/c1cnc2c(c1)NC1(CCOCC1)C(=O)N2 [Compound 64, (E)-N-Methyl-N-((2-methylbenzofuran-3-yl)methyl)-3-(3′-oxo-2,3,3′,4′,5,6-hexahydro-1′H-spiro[pyran-4,2′-pyrido[2,3-b]pyrazin]-7′-yl)acrylamide] |
| < 1 µg/mL | < 10 nM | Cc1oc2ccccc2c1CN(C)C(=O)/C=C/c1cnc2c(c1)NCC(C)(CO)C(=O)N2 (stereo not shown) [Compound 39, (E)-3-(3-(Hydroxymethyl)-3-methyl-4-oxo-2,3,4,5-tetrahydro-1H-pyrido[2,3-b][1,4]diazepin-8-yl)-N-methyl-N-((2-methylbenzofuran-3-yl)methyl)acrylamide] |
| < 1 µg/mL | < 10 nM | N#Cc1cccc(Oc2ccc(C3=C[C@H]4CN(C(=O)/C=C/c5cnc6c(c5)NCCC(=O)N6)C[C@H]4C3)cc2)c1 [Compound 123, 3-(4-((3rS,6rR)-2-((E)-3-(4-Oxo-2,3,4,5-tetrahydro-1H-pyrido[2,3-b][1,4]diazepin-8-yl)acryloyl)-1,2,3,3r,4,6r-hexahydrocyclopenta[c]pyrrol-5-yl)phenoxy)benzonitrile] |
| < 1 µg/mL | < 10 nM | Cc1c(CN(C)C(=O)/C=C/c2cnc3c(c2)NCC(C)(CO)C(=O)N3)oc2ccccc12 (stereo not shown) [Compound 31, (E)-3-(3-(hydroxymethyl)-3-methyl-4-oxo-2,3,4,5-tetrahydro-1H-pyrido[2,3-b][1,4]diazepin-8-yl)-N-methyl-N-((3-methylbenzofuran-2-yl)methyl)acrylamide] |
| < 1 µg/mL | < 10 nM | Cc1c(CN(C)C(=O)/C=C/c2cnc3c(c2)NCC(=O)N3)oc2ccccc12 [Compound 10, (E)-N-methyl-N-((3-methylbenzofuran-2-yl)methyl)-3-(3-oxo-1,2,3,4-tetrahydropyrido[2,3-b]pyrazin-7-yl)acrylamide] |
| < 1 µg/mL | < 10 nM | Cc1c(CN(C)C(=O)/C=C/c2cnc3c(c2)N[C@@](C)(CO)C(=O)N3)oc2ccccc12 (single isomer, unassigned) [Compound 208] |
| < 1 µg/mL | < 10 nM | Cc1c(CN(C)C(=O)/C=C/c2cnc3c(c2)N[C@H](C)[C@H](O)C(=O)N3)oc2ccccc12 (single isomer, unassigned) [Compound 150] |
| < 1 µg/mL | < 10 nM | Cc1oc2c(N)cccc2c1CN(C)C(=O)/C=C/c1cnc2c(c1)NCC(C)(C)C(=O)N2 [Compound 109, (E)-N-((7-Amino-2-methylbenzofuran-3-yl)methyl)-3-(3,3-dimethyl-4-oxo-2,3,4,5-tetrahydro-1H-pyrido[2,3-b][1,4]diazepin-8-yl)-N-methylacrylamide] |
| < 1 µg/mL |  | Cc1c(CN(C)C(=O)/C=C/c2cnc3c(c2)N[C@H](C)[C@@](C)(O)C(=O)N3)oc2ccccc12 [Compound 207, (E)-3-(3-hydroxy-2,3-dimethyl-4-oxo-2,3,4,5-tetrahydro-1H-pyrido[2,3-b][1,4]diazepin-8-yl)-N-methyl-N-((3-methylbenzofuran-2-yl)methyl)acrylamide] |
|  | < 10 nM | Cc1c(CN(C)C(=O)/C=C/c2cnc3c(c2)N[C@H](C)[C@@](C)(O)C(=O)N3)oc2ccccc12 (racemic) [Compound 207, (E)-3-(3-hydroxy-2,3-dimethyl-4-oxo-2,3,4,5-tetrahydro-1H-pyrido[2,3-b][1,4]diazepin-8-yl)-N-methyl-N-((3-methylbenzofuran-2-yl)methyl)acrylamide] |
